In US6391924B1, “Taurine derivatives useable in the treatment of ophthalmic disorders” (priority 1997, dated 2002) one finds photoprotective effects and soluability in water data, which are given here for 2 molecules.

The test system of one data set is frog retinas. The settings on record: in vitro; cited from earlier work.
Another data set in a line: solubility in water. The class given is physicochemical. As for the experimental part: The all-trans isomer of retinyliden tauret (i.e., all-trans-3,7-dimethyl-9-(2,6,6-trimehyl-1-cyclohexen-1-yl)-2,4,6,8-nonatetraen-1-imido-(N-sulfonic acid) prepared in this example has the following characterization: a) Absorbency Max […]., b) Extinction Coefficient at […] is 40200, c) upon protonation the absorbency Max shifts to 444 um, d) the Extinction Coefficient at 444 um is 40050 e) Melting Point is 115 C., -116° C. and soluability in water is 200 mg/ml.

Structures are written as SMILES.

`CC(C=CC1=C(C)CCCC1(C)C)=CC=CC(C)=CC=NCCS(=O)(=O)O` [retinyliden tauret, 3,7-dimethyl-9-(2,6,6-trimehyl-1-cyclohexen-1-yl)-2,4,6,8-nonatetraen-1-imido-(N-ethanesulfonic acid)]: the photoprotective effects result with frog retinas is given as “some photoprotective effects”.

For `CC1=C(/C=C/C(C)=C/C=C/C(C)=C/C=NCCS(=O)(=O)O)C(C)(C)CCC1` (single isomer, unassigned) [all-trans isomer of retinyliden tauret, all-trans-3,7-dimethyl-9-(2,6,6-trimehyl-1-cyclohexen-1-yl)-2,4,6,8-nonatetraen-1-imido-(N-ethanesulfonic acid)], the soluability in water in “solubility in water” came to 200 mg/mL.
